This passage reports EC50 and Ki results from patent publication US9951064B2, “Azaindazole compounds as inhibitors of T790M containing EGFR mutants” (Genentech, Inc., priority 2013, dated 2018).

In experiment [1] the target is T1, phosphor-EGFR in H1975(L585R/T790M) mutant EGFR expressing cells (Homo sapiens, UniProt P00533, L858R/T790M).
T1 construct: host or cells: NCI-H1975
The experiment can be described thus: H1975 pEGFR MSD cellular assay. The format is cell-based. Particulars: NCI-H1975 cells, serum starved, 1 hour compound incubation, pEGFR Tyr1068 MSD; read-out: HI975 pEGFR EC50. The protocol: H1975 pEGFR MSD Cellular Assays
These assays are intended for determining cellular. […] (Meso Scale Discovery Catalog# N31CB-1).
NCI-H1975 (ATCC Catalog# CRL-5908) cells are maintained in medium containing RPMI 1640, 10% FBS, 4 mM L-Glutamine, 1% Penicillin-Streptomycin, and 4.5 g/L Glucose. All cell culture reagents were purchased from Invitrogen/Gibco. Cells are cultured at 37° C. at 5% CO2 and split as recommended by ATCC.
Cell Plating and Serum Starvation:
H1975 cells are harvested and plated into sterile cell culture treated 384 well plates (Greiner catalog #781091) at a density of 30,000 cells/well in 50 ul culture medium and placed in a 37° C. at 5% CO2 incubator for six hours. After six hours, culture medium is aspirated and replaced with serum-free culture medium. Cells are then incubated with the serum-free medium overnight at 37° C. and 5% CO2.
The following day, test compounds are serially diluted in dimethyl sulfoxide (DMSO) and added to cells in serum free medium (final DMSO concentration 0.5%). Assay plates are then incubated for 1 hour at 37° C. and 5% CO2. Following 1 hour of compound incubation cells are then lysed and processed as per the MSD pEGFR assay kit protocol. Cell lysates are added to assay plates pre-coated with antibodies against phosphorylated EGFR. Phosphorylated EGFR in samples are allowed to bind to the capture antibodies overnight at 4° C. The detection antibody (anti-total EGFR, labeled with an electrochemiluminescent SULFO-TAG) is added to the bound lysate and incubated for 1 hour at room temperature. The MSD Read Buffer is added such that when a voltage is applied to the plate electrodes, the labels bound to the electrode surface emit light. The MSD Sector Instrument measures the intensity of the light, and quantitatively measures the amount of phosphorylated-EGFR in the sample. Percent inhibition of EGFR phosphorylation by varying concentrations of test compounds is calculated relative to untreated controls. EC50 values are calculated using the 4 parameter logistic nonlinear regression dose-response model.

Another experiment concerns the target T2, EGFR T790M L858R (Homo sapiens, UniProt P00533, L858R/T790M).
T2 construct: purchased Life Technologies PV4879
The experiment can be described thus: EGFR T790M L858R biochemical assay (Caliper mobility shift). Particulars: 5 μM ATP; apparent Ki (Morrison fit) converted by Cheng-Prusoff, Km of ATP 1.3 μM. Here is the method: The exemplified compounds described herein were tested according to the assay below. The enzyme data reported in Tables 4-5 is generally a representative of multiple experiments.
Reactions proceed for 30 minutes at room temperature (22° C.) and are terminated with 80 mM 2,2′,2″,2′″-(ethane-1,2-diyldinitrilo)tetraacetic acid (EDTA). Product is detected using the Caliper mobility shift detection method where product and substrate are electrophoretically separated and measured.

For experiment [2], the system named is H1975 (EGFR T790M/L858R) cell proliferation. As to the kind of experiment: H1975 proliferation assay (Cell Titer-Glo). The format is cell-based. The note with it: NCI-H1975 cells, 72 hour incubation. Here is the method:
H1975 Proliferation Assays
All cell culture reagents were purchased from Invitrogen/Gibco. Cells are cultured at 37° C. at 5% CO2 and split as recommended by ATCC.

[3] abbreviates: Homo sapiens, NCI-H1975, 72 h, read-out: H1975 antiproliferative EC50.

In general, EC50 refers to the concentration at which the effect is half-maximal.

Read-outs that look alike come from different tables or passages of the source.

T2 sequence (P00533 25-1210 T790M/L858R): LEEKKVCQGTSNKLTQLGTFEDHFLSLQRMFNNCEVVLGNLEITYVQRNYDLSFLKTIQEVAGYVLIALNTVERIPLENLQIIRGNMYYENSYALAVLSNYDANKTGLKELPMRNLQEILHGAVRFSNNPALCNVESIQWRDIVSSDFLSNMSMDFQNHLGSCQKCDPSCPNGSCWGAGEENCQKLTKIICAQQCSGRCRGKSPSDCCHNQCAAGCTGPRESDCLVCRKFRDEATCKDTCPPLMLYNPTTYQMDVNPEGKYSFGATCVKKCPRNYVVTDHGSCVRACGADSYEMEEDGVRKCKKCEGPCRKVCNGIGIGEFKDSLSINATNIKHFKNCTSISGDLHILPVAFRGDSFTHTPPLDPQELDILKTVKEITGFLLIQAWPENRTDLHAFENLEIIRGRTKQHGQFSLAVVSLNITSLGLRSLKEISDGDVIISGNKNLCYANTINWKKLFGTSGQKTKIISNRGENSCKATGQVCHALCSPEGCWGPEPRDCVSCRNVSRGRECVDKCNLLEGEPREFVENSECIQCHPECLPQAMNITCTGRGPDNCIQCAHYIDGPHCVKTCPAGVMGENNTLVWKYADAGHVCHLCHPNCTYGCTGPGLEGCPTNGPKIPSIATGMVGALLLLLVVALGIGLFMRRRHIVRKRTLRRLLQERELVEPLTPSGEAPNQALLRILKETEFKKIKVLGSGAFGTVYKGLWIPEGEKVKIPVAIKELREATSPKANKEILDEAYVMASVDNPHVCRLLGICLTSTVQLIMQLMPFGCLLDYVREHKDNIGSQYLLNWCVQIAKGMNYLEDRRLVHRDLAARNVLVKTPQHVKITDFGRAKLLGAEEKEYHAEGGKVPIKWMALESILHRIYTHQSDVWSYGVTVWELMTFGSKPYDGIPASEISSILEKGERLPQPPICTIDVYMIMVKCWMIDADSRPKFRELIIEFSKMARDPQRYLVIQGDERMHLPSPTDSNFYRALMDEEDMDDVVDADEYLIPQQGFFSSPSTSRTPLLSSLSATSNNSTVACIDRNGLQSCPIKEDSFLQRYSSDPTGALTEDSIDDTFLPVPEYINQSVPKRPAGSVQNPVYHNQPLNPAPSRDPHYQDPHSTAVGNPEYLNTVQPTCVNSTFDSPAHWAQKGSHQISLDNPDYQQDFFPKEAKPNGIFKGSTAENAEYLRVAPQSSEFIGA
T1 sequence (P00533 25-1210 T790M/L858R): as above

Turning to `CC(C)n1nc(NCC(C)(C)O)c2cnc(Nc3ccnc(-c4cnn(S(=O)(=O)C5CC5)c4)n3)cc21` [Example 61, 1-(6-(2-(1-(cyclopropylsulfonyl)-1H-pyrazol-4-yl)pyrimidin-4-ylamino)-1-isopropyl-1H-pyrazolo[4,3-c]pyridin-3-ylamino)-2-methylpropan-2-ol], the EC50 in experiment [1] is 68.9 nM; in experiment [2] (setting [3]), 1200 nM. The Ki on EGFR T790M L858R stood at 1 nM.
For `CC(C)c1nn(C(C)C)c2cc(Nc3ccnc(-c4cnn(S(=O)(=O)C5CC5)c4)n3)ncc12` [Example 50, N-(2-(1-(cyclopropylsulfonyl)-1H-pyrazol-4-yl)pyrimidin-4-yl)-1,3-diisopropyl-1H-pyrazolo[4,3-c]pyridin-6-amine], in that order: 2380 nM, 3700 nM and 23.5 nM.
For the compound `CCC(C)n1nc(N2CC[C@@H](O)C2=O)c2cnc(Nc3ccnc(-c4cnn(S(=O)(=O)C5CC5)c4)n3)cc21` (stereo partly drawn) [Example 186, (3R)-1-(1-sec-Butyl-6-(2-(1-(cyclopropylsulfonyl)-1H-pyrazol-4-yl)pyrimidin-4-ylamino)-1H-pyrazolo[4,3-c]pyridin-3-yl)-3-hydroxypyrrolidin-2-one], the EC50 worked out at 74.9 nM in experiment [1] and 586 nM in experiment [2] (setting [3]).
On to `CCC(C)n1nc(N2CC(C(C)(C)O)C2)c2cnc(Nc3ccnc(-c4cnn(S(=O)(=O)C5CC5)c4)n3)cc21` (single isomer, unassigned) [Example 13, enantiomer 1, 2-(1-(1-(sec-Butyl)-6-((2-(1-(cyclopropylsulfonyl)-1H-pyrazol-4-yl)pyrimidin-4-yl)amino)-1H-pyrazolo[4,3-c]pyridin-3-yl)azetidin-3-yl)propan-2-ol], for which the EC50 in experiment [2] (setting [3]) came out at 361 nM.
For the compound `CC(C)n1nc(N2CCOCC2)c2cnc(Nc3ccnc(N4CCC(O)C(C)(C)C4)n3)cc21` (stereo not drawn) [Example 34], the EC50 in experiment [1] came out at 111 nM; in experiment [2] (setting [3]), 1410 nM. On EGFR T790M L858R, the Ki is 2.6 nM.
Take `CC(C)Oc1nn(C(C)C)c2cc(Nc3ccnc(-c4cnn(S(=O)(=O)C5CC5)c4)n3)ncc12` [Example 62, N-(2-(1-(cyclopropylsulfonyl)-1H-pyrazol-4-yl)pyrimidin-4-yl)-3-isopropoxy-1-isopropyl-1H-pyrazolo[4,3-c]pyridin-6-amine]: the EC50 in experiment [1] is 458 nM; in experiment [2] (setting [3]) it was 3590 nM. The Ki on EGFR T790M L858R is 12 nM.
With `CCC(C)n1nc(N2CC[C@H](O)C2=O)c2cnc(Nc3ccnc(-c4cnn(S(=O)(=O)C5CC5)c4)n3)cc21` (stereo partly drawn) [Example 185, (3S)-(1-sec-Butyl-6-(2-(1-(cyclopropylsulfonyl)-1H-pyrazol-4-yl)pyrimidin-4-ylamino)-1H-pyrazolo[4,3-c]pyridin-3-yl)-3-hydroxypyrrolidin-2-one], the EC50 was determined as 85.6 nM in experiment [1] and 696 nM in experiment [2] (setting [3]).
`CC(C)n1nc(N2C[C@@H](O)[C@@H](O)C2)c2cnc(Nc3ccnc(N4CCC(C)(O)CC4)n3)cc21` [Example 191, (±)-1-(6-(2-(4-Hydroxy-4-methylpiperidin-1-yl)pyrimidin-4-ylamino)-1-isopropyl-1H-pyrazolo[4,3-c]pyridin-3-yl)pyrrolidine-cis-3,4-diol]: the values for the EC50 in experiment [1] and in experiment [2] (setting [3]) were 532 nM and more than 10000 nM, respectively.
As for `CCC(C)n1nc(N2CCN(C(=O)[C@H](C)O)CC2)c2cnc(Nc3ccnc(-c4cnn(S(=O)(=O)C5CC5)c4)n3)cc21` (stereo partly drawn) [Example 187, (2S)-1-(4-(1-sec-Butyl-6-(2-(1-(cyclopropylsulfonyl)-1H-pyrazol-4-yl)pyrimidin-4-ylamino)-1H-pyrazolo[4,3-c]pyridin-3-yl)piperazin-1-yl)-2-hydroxypropan-1-one], the EC50 was 75.5 nM in experiment [1] and 813 nM in experiment [2] (setting [3]).
Consider `CC(C)n1nc(F)c2cnc(Nc3ccnc(-c4cnn(S(=O)(=O)C5CC5)c4)n3)cc21` [Example 7, N-(2-(1-(Cyclopropylsulfonyl)-1H-pyrazol-4-yl)pyrimidin-4-yl)-3-fluoro-1-isopropyl-1H-pyrazolo[4,3-c]pyridin-6-amine], for which the Ki at EGFR T790M L858R was found to be 298 nM. Moreover, the EC50 in experiment [2] (setting [3]) is more than 10000 nM.
Consider `CCC(C)n1nc(N2CCOCC2)c2cnc(Nc3ccnc(-c4cnn(S(=O)(=O)C5CC5)c4)n3)cc21` (single isomer, unassigned) [Example 27, enantiomer 2, 1-(sec-Butyl)-N-(2-(1-(cyclopropylsulfonyl)-1H-pyrazol-4-yl)pyrimidin-4-yl)-3-morpholino-1H-pyrazolo[4,3-c]pyridin-6-amine], for which the EC50 in experiment [2] (listed as 27, enantiomer 2, read-out: H1975 antiproliferative EC50) came out at 1140 nM.
`CCC(C)n1nc(N2CC(C(C)O)C2)c2cnc(Nc3ccnc(-c4cnn(S(=O)(=O)C5CC5)c4)n3)cc21` (stereo not drawn) [Example 190, 1-(1-(1-sec-Butyl-6-(2-(1-(cyclopropylsulfonyl)-1H-pyrazol-4-yl)pyrimidin-4-ylamino)-1H-pyrazolo[4,3-c]pyridin-3-yl)azetidin-3-yl)ethanol]: the results for the EC50 in experiment [1] and in experiment [2] (setting [3]) were 44.6 nM and 537 nM, respectively.
For `CCC(C)n1nc(N2CCN(C(=O)[C@@H](C)O)CC2)c2cnc(Nc3ccnc(-c4cnn(S(=O)(=O)C5CC5)c4)n3)cc21` (stereo partly drawn) [Example 188, (2R)-1-(4-(1-sec-Butyl-6-(2-(1-(cyclopropylsulfonyl)-1H-pyrazol-4-yl)pyrimidin-4-ylamino)-1H-pyrazolo[4,3-c]pyridin-3-yl)piperazin-1-yl)-2-hydroxypropan-1-one] the same measures were 64.3 nM and 1090 nM.
Turning to `CCC(C)n1nc(N2CC(N)C(F)(F)C2)c2cnc(Nc3ccnc(N4CCC(C)(O)CC4)n3)cc21` (stereo not drawn) [Example 184, 1-(4-(3-(4-Amino-3,3-difluoropyrrolidin-1-yl)-1-sec-butyl-1H-pyrazolo[4,3-c]pyridin-6-ylamino)pyrimidin-2-yl)-4-methylpiperidin-4-ol], the figures for the EC50 in experiment [1] and in experiment [2] (setting [3]) were 94.9 nM and 761 nM, respectively.
Consider `CC(C)n1nc(N2C[C@H](O)[C@@H](O)C2)c2cnc(Nc3ccnc(N4CCC(C)(O)CC4)n3)cc21` [Example 192, (3S,4S)-1-(6-(2-(4-Hydroxy-4-methylpiperidin-1-yl)pyrimidin-4-ylamino)-1-isopropyl-1H-pyrazolo[4,3-c]pyridin-3-yl)pyrrolidine-3,4-diol], for which, in experiment [2] (setting [3]), the EC50 was more than 10000 nM.
In the case of `COC1CCN(c2nccc(Nc3cc4c(cn3)c(C(N)=O)nn4C(C)C)n2)CC1` [Example 11, 1-Isopropyl-6-((2-(4-methoxypiperidin-1-yl)pyrimidin-4-yl)amino)-1H-pyrazolo[4,3-c]pyridine-3-carboxamide], the Ki at EGFR T790M L858R is 29.1 nM.
On to `CCC(C)n1nc(N2CCOCC2)c2cnc(Nc3ccnc(-c4cnn(S(=O)(=O)C5CC5)c4)n3)cc21` (single isomer, unassigned) [Example 27, enantiomer 1, 1-(sec-Butyl)-N-(2-(1-(cyclopropylsulfonyl)-1H-pyrazol-4-yl)pyrimidin-4-yl)-3-morpholino-1H-pyrazolo[4,3-c]pyridin-6-amine], for which, in experiment [2] (setting [3]), the EC50 was 610 nM.
Take `CCC(C)n1nc(N2CC(C(C)(C)O)C2)c2cnc(Nc3ccnc(-c4cnn(S(=O)(=O)C5CC5)c4)n3)cc21` (single isomer, unassigned) [Example 13, enantiomer 2, 2-(1-(1-(sec-Butyl)-6-((2-(1-(cyclopropylsulfonyl)-1H-pyrazol-4-yl)pyrimidin-4-yl)amino)-1H-pyrazolo[4,3-c]pyridin-3-yl)azetidin-3-yl)propan-2-ol]: the EC50 in experiment [2] (listed as 13, enantiomer 2, read-out: H1975 antiproliferative EC50) worked out at 633 nM.
With `CCC(C)n1nc(N2C[C@@H](CO)NC2=O)c2cnc(Nc3ccnc(-c4cnn(S(=O)(=O)C5CC5)c4)n3)cc21` (stereo partly drawn) [Example 189, (4S)-1-(1-sec-Butyl-6-(2-(1-(cyclopropylsulfonyl)-1H-pyrazol-4-yl)pyrimidin-4-ylamino)-1H-pyrazolo[4,3-c]pyridin-3-yl)-4-(hydroxymethyl)imidazolidin-2-one], the EC50 in experiment [1] is 474 nM; in experiment [2] (setting [3]) it was 5590 nM.
